Assay results published in patent US6489321B1, “Nonpeptide substituted benzothiazepines as vasopressin antagonists” (Ortho-McNeil Pharmaceutical, Inc., priority 1999, dated 2002).

Experiments:
vasopressin V1a receptor = vasopressin V1a receptor (Homo sapiens, UniProt P37288); test: In-vitro vasopressin receptor binding assay, V1a; details: for IC50: footnote 1: IC50 values (μM); for inhibition at 1 µM: read-out: Receptor Binding (% Inh. @ concentration in μM) V1a
cloned human V2 receptor = molecular target: T1, cloned human V2 receptor (Homo sapiens, UniProt P30518); test: In-vitro vasopressin receptor binding assay, V2; details: 3H-arginine-8-vasopressin; for IC50: footnote 1: IC50 values (μM)
T1 construct: expressed in transfected cells
Procedure: Assay buffer is 50 mM Tris-Cl, 5 mM MgC12, 0.1% BSA (pH 7.5) containing 5 ug/ml of aprotinin, leupeptin, pepstatin, 50 ug/ml bacitracin, and 1 mM Pefabloc. H3 vasopressin is ^3H-arginine-8-vasopressin (68.5 Ci/mmol, final concentration in assay is 0.65-0.75nM). Into wells of 96-well round bottom polypropylene plates are added buffer, test compound, membrane (containing cloned human V2 receptor), and H3 vasopressin. The reaction plates are allowed to sit at room temperature for one hour. The samples are filtered through Unifilter GF/C plates (presoaked in 0.3 polyethyleneimine). The plates are washed 5 times with cold physiological saline containing 0.05% Tween 20. After drying, the bottom of the filter plates are sealed and 0.025 ml of Microscint-20 is added to each filter. The top of the plate is sealed, and the plate is counted. Non-specific binding is determined by the addition of 1.25 uM arginine-8-vasopressin in those wells. %Inh. is [formula]

vasopressin V1a receptor, sequence (P37288 whole entry): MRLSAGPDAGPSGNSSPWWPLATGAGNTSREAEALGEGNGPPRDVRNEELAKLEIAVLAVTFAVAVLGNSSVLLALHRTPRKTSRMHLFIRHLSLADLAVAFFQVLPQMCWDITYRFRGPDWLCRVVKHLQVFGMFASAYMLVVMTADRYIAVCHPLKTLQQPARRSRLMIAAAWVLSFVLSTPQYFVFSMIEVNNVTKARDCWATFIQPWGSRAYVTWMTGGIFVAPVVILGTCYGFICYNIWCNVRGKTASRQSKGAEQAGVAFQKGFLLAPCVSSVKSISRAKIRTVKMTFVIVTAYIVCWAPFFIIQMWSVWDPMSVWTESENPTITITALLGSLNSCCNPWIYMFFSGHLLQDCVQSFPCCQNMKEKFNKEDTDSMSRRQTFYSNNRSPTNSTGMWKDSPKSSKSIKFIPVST

Compound: 2-(2-Aminoethyl)-5-[4-(2-phenylbenzoylamino)benzoyl]-1,5-benzothiazepine [Compound 28]
- Receptor Binding (% Inh. @ concentration in μM) V1a (vasopressin V1a receptor; 0.1 μM test compound): 19% @ .1
- Receptor Binding (% Inh. @ concentration in μM) V2 (cloned human V2 receptor; 0.1 μM test compound): 46% 0.1

Compound: 2-(2-Hydroxyethyl)-5-(4-(2-phenylbenzoylamino)-pyridinoyl)-1,5-benzothiazepine [Compound 40]
- Receptor Binding (% Inh. @ concentration in μM) V1a (vasopressin V1a receptor; 0.1 μM test compound): 22% @ .1
- IC50 (cloned human V2 receptor): 0.03 µM

Compound: 2-(2-Hydroxyethyl)-5-(4-(2-phenylbenzoylamino)benzoyl)-1,5-benzothiazepine [Compound 26]
- IC50 (vasopressin V1a receptor): 0.027 µM
- IC50 (cloned human V2 receptor): 0.007 µM

Compound: 2-(2-Hydroxyethyl)-5-(4-(2-phenylbenzoylamino)benzoyl)-1,5-benzothiazepine [Compound 27]
- IC50 (vasopressin V1a receptor): 0.091 µM
- IC50 (cloned human V2 receptor): 0.014 µM

Compound: 2-(2-Hydroxyethyl)-5-(4-aminobenzenesulfonyl)-1,5-benzothiazepine [Compound 4]
- Receptor Binding (% Inh. @ concentration in μM) V1a (vasopressin V1a receptor; 10 μM test compound): 21% @ 10
- Receptor Binding (% Inh. @ concentration in μM) V2 (cloned human V2 receptor; 10 μM test compound): 20% @ 10

Compound: 2-(2-Hydroxyethyl)-5-[2-chloro-4-(2-methyl-5-fluorobenzoylamino)benzoyl]-1,5-benzothiazepine [Compound 43]
- Receptor Binding (% Inh. @ concentration in μM) V1a (vasopressin V1a receptor; 0.1 μM test compound): 4% @ .1
- IC50 (cloned human V2 receptor): 0.028 µM

Compound: 2-(2-Hydroxyethyl)-5-[4-(3,4-dichlorobenzoylamino)benzene-sulfonyl]-1,5-benzothiazepine [Compound 10]
- Receptor Binding (% Inh. @ concentration in μM) V1a (vasopressin V1a receptor; 10 μM test compound): 0% @ 10
- IC50 (cloned human V2 receptor): 2.1 µM

Compound: 2-(2-Methanesulfonylethyl)-5-(4-(2-methylbenzoylamino)benzoyl)-1,5-benzothiazepine [Compound 13]
- IC50 (vasopressin V1a receptor): 0.3 µM
- IC50 (cloned human V2 receptor): 0.2 µM

Compound: 2-(2-Methanesulfonylethyl)-5-[(4-(2-phenylbenzoylamino)-benzenesulfonyl)]-1,5-benzothiazepine [Compound 20]
- Receptor Binding (% Inh. @ concentration in μM) V1a (vasopressin V1a receptor; 1 μM test compound): 24% @ 1
- Receptor Binding (% Inh. @ concentration in μM) V2 (cloned human V2 receptor; 1 μM test compound): 6% @ 1

Compound: 2-(2-Methanesulfonylethyl)-5-[(4-(2-phenylbenzoylamino)-benzyl)]-1,5-benzothiazepin-4-one [Compound 21]
- Receptor Binding (% Inh. @ concentration in μM) V1a (vasopressin V1a receptor; 0.1 μM test compound): 5% @ 0.1
- Receptor Binding (% Inh. @ concentration in μM) V2 (cloned human V2 receptor; 0.1 μM test compound): 1% @ 0.1

Compound: 2-(2-Methanesulfonylethyl)-5-[(4-(2-phenylbenzoylamino)benzoyl)]-1,5-benzothiazepine [Compound 16]
- IC50 (vasopressin V1a receptor): 1.2 µM
- IC50 (cloned human V2 receptor): 0.013 µM

Compound: 2-[N-(tert-butoxycarbonyl)-ethyl]-5-[4-(2-methylbenzoylamino)-benzyl]-1,5-benzothiazepine-4-one [Compound 6]
- Receptor Binding (% Inh. @ concentration in μM) V1a (vasopressin V1a receptor; 10 μM test compound): 13% @ 10
- Receptor Binding (% Inh. @ concentration in μM) V2 (cloned human V2 receptor; 10 μM test compound): 22% @ 10

Compound: CC(=O)Nc1ccc(S(=O)(=O)N2CCC(CCN(C)C)Sc3ccccc32)cc1 (stereo not drawn) [Compound 1]
- Receptor Binding (% Inh. @ concentration in μM) V1a (vasopressin V1a receptor; 25 μM test compound): 14% @ 25
- Receptor Binding (% Inh. @ concentration in μM) V2 (cloned human V2 receptor; 25 μM test compound): 7% @ 25

Compound: Cc1ccccc1C(=O)Nc1ccc(S(=O)(=O)N2CCC(CCN(C)C)Sc3ccccc32)cc1 (stereo not drawn) [Compound 2, 2-(2-Dimethylaminoethyl)-5-(4-(2-methylbenzoylamino)-benzenesulfonyl]-1,5-benzothiazepine]
- Receptor Binding (% Inh. @ concentration in μM) V1a (vasopressin V1a receptor; 25 μM test compound): 29% @ 25
- Receptor Binding (% Inh. @ concentration in μM) V2 (cloned human V2 receptor; 25 μM test compound): 34% @ 25

Compound: Cc1ccccc1C(=O)Nc1ccc(S(=O)(=O)N2CCC(CCN3CCOCC3)Sc3ccccc32)cc1 (stereo not drawn) [Compound 3, 2-[2-(N-Morpholino)-ethyl]-5-[4-(2-methylbenzoylamino)-benzenesulfonyl]-1,5-benzothiazepine]
- Receptor Binding (% Inh. @ concentration in μM) V1a (vasopressin V1a receptor; 25 μM test compound): 47% @ 25
- Receptor Binding (% Inh. @ concentration in μM) V2 (cloned human V2 receptor; 25 μM test compound): 37% @ 25

Compound: Cc1ccccc1C(=O)Nc1ccc(S(=O)(=O)N2CCC(CCO)Sc3ccccc32)cc1 (stereo not drawn) [Compound 5]
- Receptor Binding (% Inh. @ concentration in μM) V1a (vasopressin V1a receptor; 10 μM test compound): 13% @ 10
- IC50 (cloned human V2 receptor): 0.76 µM

Compound: Cc1ccccc1C(=O)Nc1ccc(CN2C(=O)CC(CCN)Sc3ccccc32)cc1 (stereo not drawn) [Compound 7, 2-(2-Aminoethyl)-5-[4-(2-methylbenzoylamino)-benzyl]-1,5-benzothiazepine-4-one]
- Receptor Binding (% Inh. @ concentration in μM) V1a (vasopressin V1a receptor; 10 μM test compound): 10% @ 10
- Receptor Binding (% Inh. @ concentration in μM) V2 (cloned human V2 receptor; 10 μM test compound): 4% @ 10

Compound: COc1ccc(CNCCC2CC(=O)N(Cc3ccc(NC(=O)c4ccccc4C)cc3)c3ccccc3S2)c(OC)c1 (stereo not drawn) [Compound 8]
- Receptor Binding (% Inh. @ concentration in μM) V1a (vasopressin V1a receptor; 10 μM test compound): 33% @ 10
- Receptor Binding (% Inh. @ concentration in μM) V2 (cloned human V2 receptor; 10 μM test compound): 32% @ 10

Compound: Cc1ccccc1C(=O)Nc1ccc(C(=O)N2CCC(CCN(C)C)Sc3ccccc32)cc1 (stereo not drawn) [Compound 9]
- IC50 (vasopressin V1a receptor): 1.5 µM
- Receptor Binding (% Inh. @ concentration in μM) V2 (cloned human V2 receptor; 10 μM test compound): 63% @ 10

Compound: CN(C)CCC1CCN(C(=O)c2ccc(NC(=O)c3ccccc3-c3ccccc3)cc2)c2ccccc2S1 (stereo not drawn) [Compound 11, 2-(2-Dimethylaminoethyl)-5-(4-(2-phenylbenzoylamino)benzoyl)-1,5-benzothiazepine]
- Receptor Binding (% Inh. @ concentration in μM) V1a (vasopressin V1a receptor; 10 μM test compound): 63% @ 10
- IC50 (cloned human V2 receptor): 0.43 µM

Compound: CN(C)CCC1CCN(C(=O)c2ccc(N)cc2)c2ccccc2S1 (stereo not drawn) [Compound 12]
- Receptor Binding (% Inh. @ concentration in μM) V1a (vasopressin V1a receptor; 10 μM test compound): 35% @ 10
- Receptor Binding (% Inh. @ concentration in μM) V2 (cloned human V2 receptor; 10 μM test compound): 6% @ 10

Compound: CNCCC1CCN(C(=O)c2ccc(NC(=O)c3ccccc3C)cc2)c2ccccc2S1 (stereo not drawn) [Compound 14]
- Receptor Binding (% Inh. @ concentration in μM) V1a (vasopressin V1a receptor; 1 μM test compound): 50% @ 1
- Receptor Binding (% Inh. @ concentration in μM) V2 (cloned human V2 receptor; 1 μM test compound): 28% @ 1

Compound: Cc1ccccc1C(=O)Nc1ccc(C(=O)N2CCC(CCN)Sc3ccccc32)cc1 (stereo not drawn) [Compound 15, 2-(2-Aminoethyl)-5-[4-(2-methylbenzoylamino)benzoyl]-1,5-benzothiazepine]
- Receptor Binding (% Inh. @ concentration in μM) V1a (vasopressin V1a receptor; 1 μM test compound): 42% @ 1
- Receptor Binding (% Inh. @ concentration in μM) V2 (cloned human V2 receptor; 1 μM test compound): 47% @ 1

Compound: O=C(Nc1ccc(C(=O)N2CCC(CCO)Sc3ccccc32)cc1)c1ccccc1-c1ccccc1 (stereo not drawn) [Compound 17]
- IC50 (vasopressin V1a receptor): 0.097 µM
- IC50 (cloned human V2 receptor): 0.008 µM

Compound: Cc1ccccc1C(=O)Nc1ccc(C(=O)N2CCC(CCO)Sc3ccccc32)cc1 (stereo not drawn) [Compound 18]
- IC50 (vasopressin V1a receptor): 0.041 µM
- IC50 (cloned human V2 receptor): 0.048 µM

Compound: O=C(Nc1ccc(S(=O)(=O)N2CCC(CCO)Sc3ccccc32)cc1)c1ccccc1-c1ccccc1 (stereo not drawn) [Compound 19, 2-(2-Hydroxyethyl)-5-[4-(2-phenylbenzoylamino)-benzenesulfonyl]-1,5-benzothiazepine]
- Receptor Binding (% Inh. @ concentration in μM) V1a (vasopressin V1a receptor; 1 μM test compound): 34% @ 1
- Receptor Binding (% Inh. @ concentration in μM) V2 (cloned human V2 receptor; 1 μM test compound): 27% @ 1

Compound: Cc1ccccc1C(=O)Nc1ccc(CN2C(=O)CC(CCO)Sc3ccccc32)cc1 (stereo not drawn) [Compound 22, 2-(2-Hydroxyethyl)-5-(4-(2-methylbenzoylamino)benzyl)-1,5-benzothiazepine-4-one]
- Receptor Binding (% Inh. @ concentration in μM) V1a (vasopressin V1a receptor; 1 μM test compound): 54% @ 1
- Receptor Binding (% Inh. @ concentration in μM) V2 (cloned human V2 receptor; 1 μM test compound): 33% @ 1

Compound: O=C(Nc1ccc(CN2C(=O)CC(CCO)Sc3ccccc32)cc1)c1ccccc1-c1ccccc1 (stereo not drawn) [Compound 23, 2-(2-Hydroxyethyl)-5-(4-(2-phenylbenzoylamino)benzyl)-1,5-benzothiazepine-4-one]
- Receptor Binding (% Inh. @ concentration in μM) V1a (vasopressin V1a receptor; 1 μM test compound): 33% @ 1
- Receptor Binding (% Inh. @ concentration in μM) V2 (cloned human V2 receptor; 1 μM test compound): 43% @ 1

Compound: O=C(O)CC1CCN(C(=O)c2ccc(NC(=O)c3ccccc3-c3ccccc3)cc2)c2ccccc2[S+]1[O-] (stereo not drawn) [Compound 24, 2-Carboxymethyl-1-oxo-5-(4-(2-phenylbenzoylamino)benzoyl)-1,5-benzothiazepine]
- inhibition at 1 µM (vasopressin V1a receptor; 1 μM test compound): 0%
- IC50 (cloned human V2 receptor): 0.108 µM

Compound: O=CCC1CCN(C(=O)c2ccc(NC(=O)c3ccccc3-c3ccccc3)cc2)c2ccccc2S1 (stereo not drawn) [Compound 25, 2-[5-[4-(2-Phenylbenzoylamino)benzoyl]-1,5-benzothiazepine]acetaldehyde]
- inhibition at 1 µM (vasopressin V1a receptor; 1 μM test compound): 30%
- IC50 (cloned human V2 receptor): 0.014 µM
